In brackets after ≈: the same amount, converted by molar mass.
How the values were obtained:
Staphylococcus aureus = experiment: experimental Staphylococcus aureus infection in mice; assay type: in vivo; settings: po
Procedure: In fact, propynyl derivative (i.e. 3-[4-(2-propynyl)-1-piperazinyl]iminomethylrifamycin SV) in representative experiments has shown an ED50 value of 0.20 mg/kg p.o. The toxicity is very low, the LD 50 value in mice being higher than 2000 mg/kg p.o. The new compounds are suitably administered in usual pharmaceutical combinations with conventional carriers.

in vivo = settings: mouse
toxicity (LD50) in mice = settings: in words
[1] = test system: Mycobacterium tuberculosis H37 Rv; experiment: minimal inhibitory concentration (antimicrobial activity); assay type: cell-based; settings: H37RV, read-out: minimal inhibitory concentration
From the text: (§1) The unexpected biological characteristics of the novel rifamycins have been evidenced by considering the survival time after a daily administration of rifampicin and a once-a-week administration of the same dose level per os of 3-[4-(2-propenyl)-1-piperazinyl]iminorifamycin SV (hereinafter referred to as "propenyl derivative") to mice infected with Mycobacterium tuberculosis H37 Rv. […] For instance, the value of the minimal inhibitory concentration of propenyl derivative against Mycobacterium tuberculosis H37 Rv is 0.02 μg/ml while that of rifampicin is 0.5 μg/ml.

[2] = test system: Mycobacterium tuberculosis H37 Rv; experiment: survival time of mice infected with Mycobacterium tuberculosis H37 Rv; assay type: in vivo; settings: once-a-week per os vs daily rifampicin at same dose level; total amount about 1/6
From the text: as §1

Row | SMILES | ED50 (Staphylococcus aureus) [mg/kg] | LD50 (in vivo; po) [mg/kg] | toxicity (toxicity (LD50) in mice) | MIC [1] [µg/mL] | survival time [2] | LD50 (in vivo; ip) [mg/kg]
1 | C#CCN1CCN(N=Cc2c3c(O)c4c(O)c(C)c5c(c4c2O)C(=O)C(C)(OC=CC(OC)C(C)C(OC(C)=O)C(C)C(O)C(C)C(O)C(C)C=CC=C(C)C(=O)N3)O5)CC1 (stereo not shown) [propynyl derivative, 3-[4-(2-Propynyl)-1-piperazinyl]iminomethylrifamycin SV] | 0.2 | > 2000 | very low |  |  | 
2 | C=CCN1CCN(N=Cc2c3c(O)c4c(O)c(C)c5c(c4c2O)C(=O)C(C)(OC=CC(OC)C(C)C(OC(C)=O)C(C)C(O)C(C)C(O)C(C)C=CC=C(C)C(=O)N3)O5)CC1 (stereo not shown) [propenyl derivative, 3-[4-(2-Propenyl)-1-piperazinyl]iminomethylrifamycin SV] |  | ~1500 |  | 0.02 (≈ 0.0236 µM) | about the same survival time | ~700

Reference: US4002754A, “Substituted piperazinyliminorifamycins” (Gruppo Lepetit S.p.A., priority 1975, dated 1977)
